According to BindingDB's records for doi:10.7270/Q22F7KMG (Eli Lilly, 1995):

How the values were obtained:
[1] = molecular target: T1, Dimer of Gag-Pol polyprotein [489-587] (Human immunodeficiency virus 1, UniProt P12497); test: Protease Inhibition Assay; conditions: pH 5.5; 22 °C
T1 construct: 489-587
Excerpt: (§1) In the presence of HIV-l protease, the substrate is rapidly cleaved into two parts. The biotinylated amino terminal fragment binds to the avidin Pandex beads while the FITC-containing carboxy1 terminal fragment is removed through the membrane.

[2] = molecular target: T2, Gag-Pol polyprotein [489-587] (Human immunodeficiency virus 1, UniProt P04585); test: Protease Inhibition Assay
T2 construct: 489-587
Excerpt: as §1

Row | Compound | IC50 [1] [nM] | IC50 [2] [nM]
1 | CC(C)(C)NC(=O)[C@@H]1C[C@@H]2SCC[C@@H]2CN1C[C@@H](O)[C@H](Cc1ccccc1)NC(=O)[C@@H](CS(=O)(=O)c1cccc2cccnc12)NC(=O)C(F)(F)F [(3aR,6S,7aS)-N-tert-butyl-5-[(2R,3S)-2-hydroxy-4-phenyl-3-[(2S)-3-(quinoline-8-sulfonyl)-2-(2,2,2-trifluoroacetamido)propanamido]butyl]-octahydrothieno[3,2-c]pyridine-6-carboxamide] | 0.21 | 0.21
2 | CC(C)(C)NC(=O)[C@@H]1C[C@@H]2CCCC[C@@H]2CN1C[C@@H](O)[C@H](Cc1ccccc1)NC(=O)[C@@H](C[S+]([O-])c1ccc(F)cc1)NS(C)(=O)=O (stereo partly drawn) [(3S,4aS,8aS)-N-tert-butyl-2-[(2R,3S)-3-[(2S)-3-[(4-fluorobenzene)sulfinyl]-2-methanesulfonamidopropanamido]-2-hydroxy-4-phenylbutyl]-decahydroisoquinoline-3-carboxamide] | 0.6 | 0.6
3 | CC(=O)N[C@H](CS(=O)(=O)c1cccc2cccnc12)C(=O)N[C@@H](Cc1ccccc1)[C@H](O)CN1C[C@H]2CCCC[C@H]2C[C@H]1C(=O)NC(C)(C)C [(3S,4aS,8aS)-N-tert-butyl-2-[(2R,3S)-3-[(2S)-2-acetamido-3-(quinoline-8-sulfonyl)propanamido]-2-hydroxy-4-phenylbutyl]-decahydroisoquinoline-3-carboxamide] | 1.7 | 1.7
4 | CC(C)CN(C[C@@H](O)[C@H](Cc1ccccc1)NC(=O)[C@@H](CSc1ccc2ccccc2c1)NS(C)(=O)=O)C(=O)NC(C)(C)C [(2S)-N-[(2S,3R)-4-[(tert-butylcarbamoyl)(2-methylpropyl)amino]-3-hydroxy-1-phenylbutan-2-yl]-2-methanesulfonamido-3-(naphthalen-2-ylsulfanyl)propanamide] | 50 | 50
5 | CC(C)CN(C[C@@H](O)[C@H](Cc1ccccc1)NC(=O)[C@@H](C[S+]([O-])c1ccc2ccccc2c1)NS(C)(=O)=O)C(=O)NC(C)(C)C (stereo partly drawn) [(2S)-N-[(2S,3R)-4-[(tert-butylcarbamoyl)(2-methylpropyl)amino]-3-hydroxy-1-phenylbutan-2-yl]-2-methanesulfonamido-3-(naphthalene-2-sulfinyl)propanamide] | 2.1 | 2.1
6 | CC(=O)N[C@H](CS(=O)(=O)c1ccc2ccccc2c1)C(=O)N[C@@H](Cc1ccccc1)[C@H](O)CN1C[C@H]2CCCC[C@H]2C[C@H]1C(=O)NC(C)(C)C [(3S,4aS,8aS)-N-tert-butyl-2-[(2R,3S)-3-[(2S)-2-acetamido-3-(naphthalene-2-sulfonyl)propanamido]-2-hydroxy-4-phenylbutyl]-decahydroisoquinoline-3-carboxamide] | 1.6 | 1.6
7 | CC(=O)N[C@H](CS(=O)(=O)c1cccc2cccnc12)C(=O)N[C@@H](Cc1ccccc1)[C@H](O)CN1C[C@H]2CCS[C@H]2C[C@H]1C(=O)NC(C)(C)C [(3aR,6S,7aS)-N-tert-butyl-5-[(2R,3S)-3-[(2S)-2-acetamido-3-(quinoline-8-sulfonyl)propanamido]-2-hydroxy-4-phenylbutyl]-octahydrothieno[3,2-c]pyridine-6-carboxamide] | 0.42 | 0.42
8 | CC(C)(C)NC(=O)[C@@H]1C[C@@H]2CCCC[C@@H]2CN1C[C@@H](O)[C@H](Cc1ccccc1)NC(=O)[C@@H](C[S+]([O-])c1ccc2ccccc2c1)NS(C)(=O)=O (stereo partly drawn) | 0.4 | 0.4
9 | CC(C)(C)NC(=O)[C@@H]1C[C@@H]2SCC[C@@H]2CN1C[C@@H](O)[C@H](Cc1ccccc1)NC(=O)[C@@H](CS(=O)(=O)c1ccc(F)cc1)NS(C)(=O)=O [(3aR,6S,7aS)-N-tert-butyl-5-[(2R,3S)-3-[(2S)-3-[(4-fluorobenzene)sulfonyl]-2-methanesulfonamidopropanamido]-2-hydroxy-4-phenylbutyl]-octahydrothieno[3,2-c]pyridine-6-carboxamide] | 0.22 | 0.22
